Counter-ions that a name gives are not always drawn. Like-named read-outs stand apart in the source and are kept apart here.

In assay [1] the target is T1, SARS-CoV-2 Mac1 (Severe acute respiratory syndrome coronavirus 2, UniProt P0DTD1). In words: biochemical.
The target in assay [2] is T2, PARP14 Mac2/3 (Homo sapiens, UniProt Q460N5).
T2 sequence (Q460N5 994-1393): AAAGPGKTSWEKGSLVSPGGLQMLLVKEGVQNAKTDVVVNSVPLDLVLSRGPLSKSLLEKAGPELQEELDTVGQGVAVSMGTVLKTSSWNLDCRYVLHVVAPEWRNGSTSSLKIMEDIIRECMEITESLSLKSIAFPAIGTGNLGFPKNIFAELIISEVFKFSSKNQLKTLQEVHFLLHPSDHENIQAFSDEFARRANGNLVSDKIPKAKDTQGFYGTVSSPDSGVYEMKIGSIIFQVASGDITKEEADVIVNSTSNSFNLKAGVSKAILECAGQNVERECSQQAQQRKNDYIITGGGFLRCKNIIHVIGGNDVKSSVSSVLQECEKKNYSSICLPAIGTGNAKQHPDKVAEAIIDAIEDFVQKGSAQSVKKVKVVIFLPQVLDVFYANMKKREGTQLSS
The experiment in a line: biochemical. The class given is binding.

Assay [3] deals with T3, MacroD1 (Homo sapiens, UniProt Q9BQ69).
T3 sequence (Q9BQ69 90-325): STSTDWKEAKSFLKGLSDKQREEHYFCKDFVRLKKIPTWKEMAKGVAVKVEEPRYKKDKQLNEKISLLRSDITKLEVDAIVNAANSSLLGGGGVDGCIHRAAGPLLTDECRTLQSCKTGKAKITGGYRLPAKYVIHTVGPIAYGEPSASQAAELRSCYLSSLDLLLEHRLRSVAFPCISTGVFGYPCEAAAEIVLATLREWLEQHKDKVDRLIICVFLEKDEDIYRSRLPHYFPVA
In words: biochemical.

Assay [4] has as its target T4, TARG1 (Homo sapiens, UniProt Q9Y530).
T4 construct: "Uniprot: Q9Y530" res; His10 with TEV site (N, cleaved yes); made in house; host or cells: E. coli T7-express
T4 sequence (Q9Y530 3-152): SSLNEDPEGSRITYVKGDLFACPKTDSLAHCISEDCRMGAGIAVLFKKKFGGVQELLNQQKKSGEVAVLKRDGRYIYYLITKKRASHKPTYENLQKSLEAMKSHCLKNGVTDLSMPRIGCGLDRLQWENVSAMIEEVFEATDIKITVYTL
It counts as biochemical. As to conditions: read-out: IC50 TARG1.

Assay [5] deals with T5, MacroD2 (Homo sapiens, UniProt A1Z1Q3).
T5 sequence (A1Z1Q3 4-243): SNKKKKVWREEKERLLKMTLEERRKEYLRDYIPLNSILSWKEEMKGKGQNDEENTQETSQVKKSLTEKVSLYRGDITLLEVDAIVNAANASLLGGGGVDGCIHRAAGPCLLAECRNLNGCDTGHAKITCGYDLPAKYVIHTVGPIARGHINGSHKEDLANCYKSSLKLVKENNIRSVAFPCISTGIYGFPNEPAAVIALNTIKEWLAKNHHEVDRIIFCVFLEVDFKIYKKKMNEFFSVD
The class given is biochemical. As to conditions: read-out: IC50 MacroD2.

The target of assay [6] is HCoV-229e macrodomain (Human coronavirus 229E, UniProt P0C6X1). In words: DeMAR HTRF deMARylation assay, wash protocol. The class given is biochemical. In general terms: In TR-FRET formats the signal depends on donor and acceptor labels being close together.
Assay [7] deals with T3, MacroD1. Further details: method as in PMID 18983849. Conditions: read-out: Kd for free ADPr, MacroD1; cited from earlier work.
Assay [8] concerns the target T1, SARS-CoV-2 Mac1. The class given is biochemical.
The target in assay [9] is CHIKV macrodomain (Chikungunya virus, UniProt Q8JUX6, C1333S). The class given is biochemical, Chikungunya (CHIKV) alphavirus.
Assay [10] concerns MARylated Tb-PARP10cat. The class given is biochemical, human.
In assay [11] the test system is MARylated Tb-PARP10cat. The class given is biochemical, human. This is another data set of the same source.
The mark [12] stands for this setting: read-out: IC50 HCoV-229e, wash setup, 2 h, 80 nM macrodomain, 6 nM immobilized Tb-PARP10cat.

As to `O=C(Nc1ccccc1)Nc1ccc(C(=O)NC2c3cccc(O)c3CC2C(=O)O)cc1` (centres unmarked) [Z8539_0023], the IC50 (usually the concentration that inhibits the measured activity by half) in assay [1] is 6 µM; in assay [3] (read-out: IC50 MacroD1), over 667 µM; in assay [4] it was over 667 µM; in [5] it was over 667 µM. Also, the “readout quenching in one-pot setup (PARP14 Mac2/3 off-target), in words” value (from here on “readout quenching in one-pot setup”) in assay [2] was “pronounced readout quenching”.

With `Nc1ncnc2c1ncn2C1OC(COP(=O)(O)OP(=O)(O)OCC2OC(O)C(O)C2O)C(O)C1O` (centres unmarked) [ADPr, Adenosine 5′-diphosphoribose sodium salt], the half-inhibitory concentration (IC50) is 67 µM in assay [2], 2 µM in [3] and about 460 µM in [6]. In assay [7], the Kd (in general, the concentration at which binding is half-saturated) was 0.9 µM.

`Oc1c(Cl)cc(Cl)c(Cl)c1Cc1c(O)c(Cl)cc(Cl)c1Cl` [hexachlorophene]: in assay [8], the “inhibition of SARS-CoV-2 Mac1 in words” value was “limited efficacy”.

`N#C[C@@]1(c2ccc3c(N)ncnn23)O[C@H](CO)[C@@H](O)[C@H]1O` [GS-441524]: in [2], the “readout quenching in one-pot setup” value was “clear and concentration-dependent loss of signal”. Moreover, in assay [8], the “inhibition of SARS-CoV-2 Mac1 in words” value is reported as “slightly inhibits”. Moreover, the “IC50 CHIKV” value in assay [9] is given as “slight activity”. Besides, the IC50 in assay [6] (setting [12]) is over 667 µM.

On to `O=C(Nc1ccc(C(=O)NC2c3cccc(O)c3CC2C(=O)O)c(O)c1)NC1CC1` (centres unmarked) [Z8539_0072], for which the values for the IC50 in assay [1] and in [6] (setting [12]) were 14 µM and over 667 µM, respectively.

With `O=C(Nc1ccc(C(=O)NC2c3cccc(O)c3CC2C(=O)O)cc1)NC1CC1` (centres unmarked) [Z8539], the “readout quenching in one-pot setup” value in assay [2] is recorded as “does not show a strong quenching effect”. The IC50 in assay [6] (setting [12]) is over 667 µM.

B1: MacroD2: recombinant human MacroD2, Uniprot A1Z1Q3 res. 4-243 (protein, UniProt A1Z1Q3 4-243, looked up, fragment)
chain: SNKKKKVWREEKERLLKMTLEERRKEYLRDYIPLNSILSWKEEMKGKGQNDEENTQETSQVKKSLTEKVSLYRGDITLLEVDAIVNAANASLLGGGGVDGCIHRAAGPCLLAECRNLNGCDTGHAKITCGYDLPAKYVIHTVGPIARGHINGSHKEDLANCYKSSLKLVKENNIRSVAFPCISTGIYGFPNEPAAVIALNTIKEWLAKNHHEVDRIIFCVFLEVDFKIYKKKMNEFFSVD
With B1, the “EC80 One-pot (1 h)” value in assay [10] came to 0.003 µM. Besides, the “EC80 Wash (2 h)” value in assay [11] was 0.002 µM.

B2: HCoV-229e: recombinant HCoV-229E macrodomain, Uniprot P0C6X1 res. E1270-1437 (protein, UniProt P0C6X1 1270-1437, looked up, fragment)
chain: EKLNAFLVHDNVAFYQGDVDTVVNGVDFDFIVNAANENLAHGGGLAKALDVYTKGKLQRLSKEHIGLAGKVKVGTGVMVECDSLRIFNVVGPRKGKHERDLLIKAYNTINNEQGTPLTPILSCGIFGIKLETSLEVLLDVCNTKEVKVFVYTDTEVCKVKDFVSGLVN
modifications: Non-structural protein 3 macrodomain
B2: in assay [10], the “EC80 One-pot (1 h)” value came out at 0.036 µM. The “EC80 Wash (2 h)” value in assay [11] came out at 0.015 µM.

B3: TARG1: recombinant human TARG1, Uniprot Q9Y530 res. S3-152 (protein, UniProt Q9Y530 3-152, looked up, fragment)
chain: SSLNEDPEGSRITYVKGDLFACPKTDSLAHCISEDCRMGAGIAVLFKKKFGGVQELLNQQKKSGEVAVLKRDGRYIYYLITKKRASHKPTYENLQKSLEAMKSHCLKNGVTDLSMPRIGCGLDRLQWENVSAMIEEVFEATDIKITVYTL
As to B3, the “EC80 One-pot (1 h)” value in assay [10] was “∼2256 nM”. Also, the “EC80 Wash (2 h)” value in assay [11] is reported as “∼ 830 nM”.

B4: MacroD1: recombinant human MacroD1, Uniprot Q9BQ69 res. 90-325 (protein, UniProt Q9BQ69 90-325, looked up, fragment)
chain: STSTDWKEAKSFLKGLSDKQREEHYFCKDFVRLKKIPTWKEMAKGVAVKVEEPRYKKDKQLNEKISLLRSDITKLEVDAIVNAANSSLLGGGGVDGCIHRAAGPLLTDECRTLQSCKTGKAKITGGYRLPAKYVIHTVGPIAYGEPSASQAAELRSCYLSSLDLLLEHRLRSVAFPCISTGVFGYPCEAAAEIVLATLREWLEQHKDKVDRLIICVFLEKDEDIYRSRLPHYFPVA
Regarding B4, in [10], the “EC80 One-pot (1 h)” value was 0.004 µM. Besides, in [11], the “EC80 Wash (2 h)” value was 0.003 µM.
